Calls of active or inactive are those of the source. No cut-off for these calls is given here.
What was measured:
[1] = Toxicity in NOD-SCID mouse xenografted with human KG-1 cells assessed as effect on heart damage at 5 mg/kg, ip qd administered 5 consecutive days per week for 24 days by H and E staining based analysis; assay type: organism-based; conditions: in vivo, 576 h, time 24 day
[2] = Toxicity in NOD-SCID mouse xenografted with human KG-1 cells assessed as effect on ALB level at 5 mg/kg, ip qd administered 5 consecutive days per week for 24 days; assay type: organism-based; conditions: in vivo, 576 h, time 24 day
HCT-116 [3] = assay: Induction of mitochondrial dysfunction in human HCT-116 cells assessed as attenuation of oxygen consumption rate at 10 nM incubated for 24 hrs by Seahorse XFe24 analyzer; assay type: functional, cell-based
[4] = Acute toxicity in BALB/c mouse assessed as effect on NEUT level at 68 mg/kg, ip measured on day 14; assay type: organism-based; conditions: in vivo, 336 h, time 14 day
[5] = Toxicity in NOD-SCID mouse xenografted with human KG-1 cells assessed as effect on BILT level at 5 mg/kg, ip qd administered 5 consecutive days per week for 24 days; assay type: organism-based; conditions: in vivo, 576 h, time 24 day
HCT-116 [6] = assay: Induction of mitochondrial dysfunction in human HCT-116 cells assessed as increase in extracellular acidification rate at 2 to 10 nM incubated for 24 hrs by Seahorse XFe24 analyzer; assay type: functional, cell-based; conditions: dose 2-10 nM
[7] = Toxicity in NOD-SCID mouse xenografted with human KG-1 cells assessed as effect on HDL level at 5 mg/kg, ip qd administered 5 consecutive days per week for 24 days; assay type: organism-based; conditions: in vivo, 576 h, time 24 day
[8] = Toxicity in NOD-SCID mouse xenografted with human KG-1 cells assessed as effect on lung damage at 5 mg/kg, ip qd administered 5 consecutive days per week for 24 days by H and E staining based analysis; assay type: organism-based; conditions: in vivo, 576 h, time 24 day
[9] = Acute toxicity in BALB/c mouse assessed as decrease in behavioral activity at 40 mg/kg, ip measured for 24 hrs; assay type: organism-based; conditions: in vivo

For Cc1cc(C(=O)Nc2ccc(OC(F)(F)F)cc2)nn1Cc1cccc(N2CCN(C(=O)C3CC3)CC2)c1, the Activity [1] was “Non-Toxic”, the Activity [2] was “Non-Toxic” and the Activity (HCT-116 [3]) was “Active”. The Activity [4] was “Non-Toxic”, the Activity [5] was “Non-Toxic” and the Activity (HCT-116 [6]) was “Active”. The Activity [7] was “Non-Toxic”, the Activity [8] was “Non-Toxic” and the Activity [9] was “Non-Toxic”.
With Cc1cc(C(=O)Nc2ccc(C(F)(F)F)cc2)nn1Cc1cccc(N2CCN(C(=O)C3CC3)CC2)c1 the Activity [1] was “Non-Toxic”, the Activity [2] was “Non-Toxic” and the Activity (HCT-116 [3]) was “Active”. The Activity [4] was “Non-Toxic”, the Activity [5] was “Non-Toxic” and the Activity (HCT-116 [6]) was “Active”. For the same compound, the Activity [7] was “Non-Toxic”, the Activity [8] was “Non-Toxic” and the Activity [9] was “Non-Toxic”.

Reference: ChEMBL document CHEMBL5620406, “Synthesis and biological evaluation of novel pyrazole amides as potent mitochondrial complex I inhibitors” (Eur J Med Chem, 2023)
